{"source": "patent US10568873B1", "about": "“Safranal-sorafenib combination therapy for liver cancer” (United Arab Emirates University, priority 2019, dated 2020)", "assay_type_in_all_cases": "in vivo, male Wistar rats", "key": {"[1]": {"tested_on": "DEN-induced hepatic neoplasia in rats", "assay": "Serum ALT and AST biochemical analysis in DEN-induced HCC rats", "settings": "P<0.05, one-way ANOVA, Tukey", "description": "(§1) A modified version of the protocol described by DePeralta et al. (2016) and Schiffer et al. (2005) was used here to establish the hepatocarcinogenesis model.\nOn the first 15 weeks, the control PBS group was treated with 1×PBS, whereas the experimental groups were given an intraperitoneal injection (IP) of 50 mg/kg of diethylnitrosoamine (DEN, Sigma Aldrich), a widely used chemical for inducing cancer, once a week. DEN was diluted with 1×PBS. Following a one-week break (week 16), the next three weeks (weeks 17 to 19) of treatment commenced. All drugs were administrated by oral gavage. […] For the HCC+sorafenib group, the drug (Carbosynth Limited) was administered at a dose of 10 mg/kg, five days a week. For the HCC+safranal group, the drug (Sigma Aldrich) was administered at a dose of 200 mg/kg, five days a week. For the HCC+safranal+sorafenib group, the drugs were administered at a dose of 200 mg/kg safranal+10 mg/kg sorafenib, five days a week. Both safranal and sorafenib were diluted with 1×PBS and drops of Tween 80. […] After 24-hours from last treatment, the rats were euthanized by mild diethyl ether and dissected in equal conditions. […]\nAlanine Transaminase (ALT), and Aspartate Aminotransferase (AST) assays were performed using commercial kits (Abcam), according to the protocol provided. ALT and AST activities were measured spectrophotometrically using Epoch by BioTek."}, "[2]": {"tested_on": "DEN-induced hepatic neoplasia in rats", "assay": "Liver gross examination and number of liver nodules", "description": "as §1\nOn the first 15 weeks, the control PBS group was treated with 1×PBS, whereas the experimental groups were given an intraperitoneal injection (IP) of 50 mg/kg of diethylnitrosoamine (DEN, Sigma Aldrich), a widely used chemical for inducing cancer, once a week. DEN was diluted with 1×PBS. Following a one-week break (week 16), the next three weeks (weeks 17 to 19) of treatment commenced. All drugs were administrated by oral gavage. […] For the HCC+sorafenib group, the drug (Carbosynth Limited) was administered at a dose of 10 mg/kg, five days a week. For the HCC+safranal group, the drug (Sigma Aldrich) was administered at a dose of 200 mg/kg, five days a week. For the HCC+safranal+sorafenib group, the drugs were administered at a dose of 200 mg/kg safranal+10 mg/kg sorafenib, five days a week. Both safranal and sorafenib were diluted with 1×PBS and drops of Tween 80. […] After 24-hours from last treatment, the rats were euthanized by mild diethyl ether and dissected in equal conditions. Blood and whole liver were collected."}, "[3]": {"tested_on": "DEN-induced hepatic neoplasia in rats", "assay": "Histology (H&E), area of neoplastic foci (AHF)", "settings": "H&E sections; FIG. 5; P<0.05", "description": "as §1\n(§2) On the first 15 weeks, the control PBS group was treated with 1×PBS, whereas the experimental groups were given an intraperitoneal injection (IP) of 50 mg/kg of diethylnitrosoamine (DEN, Sigma Aldrich), a widely used chemical for inducing cancer, once a week. DEN was diluted with 1×PBS. Following a one-week break (week 16), the next three weeks (weeks 17 to 19) of treatment commenced. All drugs were administrated by oral gavage. All doses were chosen according to literature (Alsaied et al., 2014; Karafakioğlu et al., 2017). For the HCC+sorafenib group, the drug (Carbosynth Limited) was administered at a dose of 10 mg/kg, five days a week. For the HCC+safranal group, the drug (Sigma Aldrich) was administered at a dose of 200 mg/kg, five days a week. For the HCC+safranal+sorafenib group, the drugs were administered at a dose of 200 mg/kg safranal+10 mg/kg sorafenib, five days a week. Both safranal and sorafenib were diluted with 1×PBS and drops of Tween 80. […] After 24-hours from last treatment, the rats were euthanized by mild diethyl ether and dissected in equal conditions. Blood and whole liver were collected. […]"}, "[4]": {"tested_on": "DEN-induced hepatic neoplasia in rats", "assay": "Reticulin staining of liver sections", "settings": "reticulin-stained sections; FIG. 6", "description": "as §1, §2"}, "PCNA": {"tested_on": "PCNA", "assay": "Western blot of proliferation-related protein PCNA in liver", "settings": "normalized to total protein, n=4, P<0.05, FIG. 7", "description": "as §1\n(§3) On the first 15 weeks, the control PBS group was treated with 1×PBS, whereas the experimental groups were given an intraperitoneal injection (IP) of 50 mg/kg of diethylnitrosoamine (DEN, Sigma Aldrich), a widely used chemical for inducing cancer, once a week. DEN was diluted with 1×PBS. Following a one-week break (week 16), the next three weeks (weeks 17 to 19) of treatment commenced. All drugs were administrated by oral gavage. All doses were chosen according to literature (Alsaied et al., 2014; Karafakioğlu et al., 2017). […]\n(§4) One hundredth gm (10 mg) liver was homogenized using 200 μl RIPA buffer (Sigma Aldrich) mixed with 2 μl protease inhibitor and 2 μl phosphatase inhibitor (Sigma Aldrich), and centrifuged at 4° C., 15,000 rpm for 15 minutes. […] Protein concentration was measured by Pierce BCA Protein Assay Kit with Promega GloMax Discover. […] Band density and quantification was done using ImageJ (Amin et al., 2011). […]\n(§5) Due to technical reasons, total protein was used in this study as the loading control instead of the other common markers like GAPDH, β-tubulin, and β-actin. […] Ten internal controls were used, and their expressions were determined using RT-PCR. […]"}, "Cdk1, Cyclin B1, Cdc25B": {"tested_on": "Cdk1, Cyclin B1, Cdc25B", "assay": "Western blot of cell cycle-related proteins in liver", "description": "as §1, §3, §4, §5"}, "[5]": {"tested_on": "Bcl-2, Bax, Pro-Caspase-9, Pro-Caspase-3, PARP", "assay": "Western blot of intrinsic apoptosis-related proteins in liver", "description": "as §1\nOn the first 15 weeks, the control PBS group was treated with 1×PBS, whereas the experimental groups were given an intraperitoneal injection (IP) of 50 mg/kg of diethylnitrosoamine (DEN, Sigma Aldrich), a widely used chemical for inducing cancer, once a week. DEN was diluted with 1×PBS. Following a one-week break (week 16), the next three weeks (weeks 17 to 19) of treatment commenced. All drugs were administrated by oral gavage. All doses were chosen according to literature (Alsaied et al., 2014; Karafakioğlu et al., 2017). For the HCC+sorafenib group, the drug (Carbosynth Limited) was administered at a dose of 10 mg/kg, five days a week. For the HCC+safranal group, the drug (Sigma Aldrich) was administered at a dose of 200 mg/kg, five days a week. For the HCC+safranal+sorafenib group, the drugs were administered at a dose of 200 mg/kg safranal+10 mg/kg sorafenib, five days a week. Both safranal and sorafenib were diluted with 1×PBS and drops of Tween 80. […] After 24-hours from last treatment, the rats were euthanized by mild diethyl ether and dissected in equal conditions. Blood and whole liver were collected.\nOne hundredth gm (10 mg) liver was homogenized using 200 μl RIPA buffer (Sigma Aldrich) mixed with 2 μl protease inhibitor and 2 μl phosphatase inhibitor (Sigma Aldrich), and centrifuged at 4° C., 15,000 rpm for 15 minutes. Whole cell lysate was taken and stored at −80° C. Protein concentration was measured by Pierce BCA Protein Assay Kit with Promega GloMax Discover. A total of 35 μg of protein was loaded on a sodium dodecyl sulfate-polyacrylamide gel electrophoresis gel. […] Band density and quantification was done using ImageJ (Amin et al., 2011). […]\nas §5"}}, "data": [{"smiles": "CC1=C(C=O)C(C)(C)CC=C1", "note": "[safranal, 2,6,6-trimethyl-1,3-cyclohexadiene-1-carboxaldehyde]", "values": [{"measurement": "ALT levels as compared to HCC group", "setting": "[1]", "value": "significantly (P<0.05) decreased ALT levels"}, {"measurement": "lesions comparing to treatment with sorafenib alone", "setting": "[2]; FIG. 3", "value": "dramatically decreased lesions"}, {"measurement": "number of liver nodules / lesions comparing to HCC animals", "setting": "[2]; week 20, FIG. 2, FIG. 3", "value": "reduced lesions"}, {"measurement": "area of neoplastic foci / restoration of normal liver architecture", "setting": "[3]", "value": "seems to enhance (P<0.05) the restoration of the normal architecture of the liver"}, {"measurement": "reticular fibers' breakage and morphology comparing to HCC group", "setting": "[4]", "value": "reduced reticular fibers' breakage and restored their morphology"}, {"measurement": "PCNA expression", "setting": "PCNA", "value": "significantly downregulated PCNA"}, {"measurement": "Cdk1, cyclin B1, Cdc25B decrease versus sorafenib alone", "setting": "Cdk1, Cyclin B1, Cdc25B; FIG. 9", "value": "showed a greater decrease than treatment with sorafenib alone"}, {"measurement": "Cdk1, cyclin B1, Cdc25B levels comparing to HCC animals", "setting": "Cdk1, Cyclin B1, Cdc25B; P<0.05, FIG. 8, FIG. 9", "value": "significantly decreased their levels"}, {"measurement": "expression of the anti-apoptotic protein Bcl-2 compared to HCC groups", "setting": "[5]; FIG. 10, FIG. 11", "value": "significantly (P<0.05) decreased"}, {"measurement": "expression of the pro-apoptotic protein Bax compared to HCC groups", "setting": "[5]; FIG. 10, FIG. 11", "value": "significantly (P<0.05) increased"}, {"measurement": "expression of pro-caspases-9 & 3 and whole PARP compared to HCC group", "setting": "[5]; P<0.05, FIG. 12", "value": "significantly decreased"}]}]}
